According to patent US20010051636A1, “Combination treatment for inhibiting bone loss” (priority 1994, published 2001):
Marks after values point to notes of the source that are not given here.

Key:
Assay type in all cases: in vivo
[1] = Body weight change in the ovex rat study BBA-9311
Procedure: (§1) Body weight was determined at the time of surgery and weekly during the study, and the dosage was adjusted with changes in body weight. Vehicle-treated ovariectomized (ovex) rats and non-ovariectomized (intact) rats were evaluated in parallel with each experimental group to serve as negative and positive controls.

[2] = test system: ovariectomized (ovex) rats; assay: 5-week ovex rat model of post-menopausal osteoporosis: femur density by X-ray grey scale image analysis; conditions: for RANGE 0-60 (relative density of bone, femur X-ray grey scale): Table 3; for anti-resorptive activity (in words): 0.1 mg/kg, each compound separately
Procedure: In the following, a model of post-menopausal osteoporosis was used in which effects of different treatments upon femur density were determined.
Seventy-five day old female Sprague Dawley rats (weight range of 225 to 275 g) were obtained from Charles River Laboratories (Portage, Mich.). They were housed in groups of 3 and had ad libitum access to food (calcium content approximately 1%) and water. Room temperature was maintained at 22.2°±1.7° C. with a minimum relative humidity of 40%. The photoperiod in the room was 12 hours light and 12 hours dark.
One week after arrival, the rats underwent bilateral ovariectomy under anesthesia (44 mg/kg Ketamine and 5 mg/kg Xylazine (Butler, Indianapolis, Ind.) administered intramuscularly). Treatment with vehicle or the indicated compound was initiated either on the day of surgery following recovery from anesthesia or 35 days following the surgery.
Oral dosage was by gavage in 0.5 mL of 1% carboxymethylcellulose (CMC).
as §1
(§2) The rats were treated daily for 35 days (6 rats per treatment group) and sacrificed by decapitation on the 36th day. […] At the time of sacrifice, the uteri were removed, dissected free of extraneous tissue, and the fluid contents were expelled before determination of wet weight in order to confirm estrogen deficiency associated with complete ovariectomy. […] The uteri were then placed in 10% neutral buffered formalin to allow for subsequent histological analysis.
The right femurs are excised and scanned at the distal metaphysis proximal from the growth plate region by grey scale image analysis of digitalized X-ray generation on a Nicolet NXR-1200 real time X-ray imaging system.

[3] = test system: ovariectomized (ovex) rats; assay: Uterine wet weight in the ovex rat study BBA-9311
Procedure: as §2

[4] = Table 1, 1 mg/kg PO CDX, 47KV/4.5C, 35 days

Structure (SMILES)	Ave BW Chg ([1]; Table 4 BBA-9311, 1 mg/kg)	Ave BW Chg ([1]; Table 4 BBA-9311, .1 mg/kg)	anti-resorptive activity (in words) [2]	Ave Ut Wt ([3]; Table 4 BBA-9311, 1 mg/kg)	Ave Ut Wt ([3]; Table 4 BBA-9311, .1 mg/kg)	RANGE 0-50 (relative density of bone, femur X-ray grey scale) [2, 4]	also measured
C#C[C@]1(O)CC[C@H]2[C@@H]3CCc4cc(O)ccc4[C@H]3CC[C@@]21C [EE2, ethynylestradiol]							Ave BW Chg ([1]; Table 4, 100 μg/kg): 49.000; RANGE 0-50 (relative density of bone, femur X-ray grey scale) ([2]; Table 1, 100 μg/kg PO CDX): 51.29*; RANGE 0-50 (relative density of bone, femur X-ray grey scale) ([2]; Table 2, 30 μg/kg PO CDX): 50.87; RANGE 0-50 (relative density of bone, femur X-ray grey scale) ([2]; Table 2, 100 μg/kg PO CDX): 61.09*; RANGE 0-60 (relative density of bone, femur X-ray grey scale) ([2]; 100 μg/kg PO CDX): 62.88*; Ave Ut Wt ([3]; Table 4, 100 μg/kg): 399.000
NCCCC(O)(P(=O)(O)O)P(=O)(O)O [ALN, Alendronate]	106.000	102.167	inactive	108.667	100.833		
CC(=O)O[C@]1(C(C)=O)CC[C@H]2[C@@H]3C[C@H](C)C4=CC(=O)CC[C@]4(C)[C@H]3CC[C@@]21C [Provera]						30.10	protection from bone loss (in words) ([2]; 10 mg/kg, by itself): protective effect; RANGE 0-50 (relative density of bone, femur X-ray grey scale) ([2]; Table 1, 10 mgmg/kg PO CDX, 47KV/4.5C, 35 days): 64.16*
Cl.O=C(c1ccc(OCCN2CCCCC2)cc1)c1c(-c2ccc(O)cc2)sc2cc(O)ccc12 [RAL, [6-hydroxy-2-(4-hydroxyphenyl)benzo[b]thien-3-yl][4-[2-(1-piperidinyl)ethoxy]phenyl]methanone hydrochloride]	49.667	75.833	inactive	166.000	157.667	57.67*	RANGE 0-50 (relative density of bone, femur X-ray grey scale) ([2]; Table 2, 1 mg/kg PO CDX): 80.98*; RANGE 0-60 (relative density of bone, femur X-ray grey scale) ([2]; 0.1 mg/kg PO CDX, 47KV/4.5C): 36.76; RANGE 0-60 (relative density of bone, femur X-ray grey scale) ([2]; 1 mg/kg PO CDX): 40.37
